Measurements reported in patent US20210395239A1 (Hoffmann-La Roche Inc., priority 2018, published 2021).

Columns and labels:
hERG channel = target: T1, hERG channel (Homo sapiens, UniProt Q12809); assay: hERG channel inhibition assay (patch-clamp, CHOhERG cells); format: cell-based; details: for IC20: human, CHO cells stably expressing hERG (CHOhERG); for IC20 / IC50: patch-clamp, CHOhERG cells; for hERG IC20/TLR7 IC50 / hERG IC20/TLR8 IC50 / hERG IC20/TLR9 IC50: safety ratio
T1 construct: expressed in transfected cells; host or cells: CHO (Chinese hamster ovary)
T1 sequence (Q12809 whole entry): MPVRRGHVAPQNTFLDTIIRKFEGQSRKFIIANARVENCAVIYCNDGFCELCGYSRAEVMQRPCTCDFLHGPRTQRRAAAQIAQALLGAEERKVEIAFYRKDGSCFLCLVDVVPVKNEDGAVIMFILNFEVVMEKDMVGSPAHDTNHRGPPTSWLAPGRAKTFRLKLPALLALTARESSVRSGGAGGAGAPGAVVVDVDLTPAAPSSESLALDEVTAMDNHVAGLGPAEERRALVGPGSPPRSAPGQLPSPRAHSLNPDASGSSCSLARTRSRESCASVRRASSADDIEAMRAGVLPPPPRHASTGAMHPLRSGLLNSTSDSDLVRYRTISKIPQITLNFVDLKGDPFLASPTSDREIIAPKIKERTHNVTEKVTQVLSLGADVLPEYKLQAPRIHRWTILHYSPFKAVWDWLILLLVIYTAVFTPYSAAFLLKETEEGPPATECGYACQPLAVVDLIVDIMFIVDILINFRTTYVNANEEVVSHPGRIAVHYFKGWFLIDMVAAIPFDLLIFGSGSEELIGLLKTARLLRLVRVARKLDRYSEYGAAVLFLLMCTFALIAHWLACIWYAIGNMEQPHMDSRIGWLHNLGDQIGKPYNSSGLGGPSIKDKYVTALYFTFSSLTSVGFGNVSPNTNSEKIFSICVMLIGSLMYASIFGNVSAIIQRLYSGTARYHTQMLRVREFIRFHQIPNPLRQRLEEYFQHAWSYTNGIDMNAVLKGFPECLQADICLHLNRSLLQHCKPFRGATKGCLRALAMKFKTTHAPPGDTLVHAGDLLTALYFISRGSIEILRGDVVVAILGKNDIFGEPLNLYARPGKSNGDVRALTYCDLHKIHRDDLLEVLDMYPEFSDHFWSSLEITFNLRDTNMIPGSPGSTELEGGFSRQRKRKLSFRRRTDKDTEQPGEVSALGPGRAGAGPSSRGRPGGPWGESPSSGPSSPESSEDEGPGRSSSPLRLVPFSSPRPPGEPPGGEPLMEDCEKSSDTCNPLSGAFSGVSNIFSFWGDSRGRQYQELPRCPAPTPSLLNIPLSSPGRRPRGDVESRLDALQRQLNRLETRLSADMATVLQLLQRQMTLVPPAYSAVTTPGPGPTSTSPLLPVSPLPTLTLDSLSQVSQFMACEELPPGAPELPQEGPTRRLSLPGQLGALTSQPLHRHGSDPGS
In short: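 Whole-cell voltage-clamp recordings used CHO cells stably expressing human hERG, with IKhERG evoked by a voltage protocol at 0.1 Hz. Increasing compound concentrations were applied, each for 3–10 min to reach steady state, and current amplitude and kinetics were expressed relative to control (100%).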

CYP2D6 = target: T2, CYP2D6 (Homo sapiens, UniProt P10635); assay: CYP inhibition assay in human liver microsome, CYP2D6; format: in vitro ADME; details: human, human liver microsomes, probe dextromethorphan 5 μM, substrate dextromethorphan 5 μM, second value of 2C9/2D6/3A4
T2 construct: tissue BD-Gentest 452117; host or cells: human liver microsomes
T2 sequence (P10635 whole entry): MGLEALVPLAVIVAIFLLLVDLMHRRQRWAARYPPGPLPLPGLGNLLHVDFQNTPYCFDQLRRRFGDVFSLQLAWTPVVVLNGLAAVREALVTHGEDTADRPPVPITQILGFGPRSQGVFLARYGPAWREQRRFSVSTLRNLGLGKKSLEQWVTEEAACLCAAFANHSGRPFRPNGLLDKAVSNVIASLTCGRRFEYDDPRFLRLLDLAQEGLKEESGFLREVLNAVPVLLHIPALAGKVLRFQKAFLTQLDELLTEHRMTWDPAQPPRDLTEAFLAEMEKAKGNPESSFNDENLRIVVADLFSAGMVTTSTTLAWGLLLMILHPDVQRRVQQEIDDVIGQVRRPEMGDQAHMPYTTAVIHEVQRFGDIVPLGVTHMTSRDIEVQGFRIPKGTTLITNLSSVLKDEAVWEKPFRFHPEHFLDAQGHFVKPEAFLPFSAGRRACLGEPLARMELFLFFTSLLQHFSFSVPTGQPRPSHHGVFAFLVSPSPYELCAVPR
Procedure: This is a high throughput screening assay used for assessment of reversible inhibition of CYP2C9, CYP2D6, and CYP3A4 activity of test compounds in human liver microsome (HLM) in early discovery stage.
10 mM DMSO stock solutions of test compounds were diluted in DMSO to generate 2 mM intermediate stock solution. 250 nL, of intermediate stock solution were transferred in duplicate into 3 separate 384 well microtitre plates (assay-ready plates). A mixture of HLM and each substrate was made up. 45 μL of HLM substrate mix was then transferred to each well of an assay ready plate and mixed. The negative (solvent) and positive controls (standard inhibitor for each CYP) were included in each assay ready plate. The assay ready plate was warmed to 37° C. in an incubator over 10 minutes. 5 μL pre-warmed NADPH regenerating system was added to each incubation well to start the reaction. Final incubation volume was 50 μL. The assay plate then was placed back in the 37° C. incubator. After incubation (10 minutes for CYP2D6) for 5 minutes, incubates were quenched by addition of 50 μL 100% acetonitrile containing internal standards (400 ng/mL 13C6-4′-OH-Diclofenac, 20 ng/mL D3-Dextrorphan and 20 ng/mL D4-1′OH-Midazolam). The supernatants were collected for RapidFire/MS/MS analysis.
RapidFire online solid phase extraction/sample injection system (Agilent) coupled with API4000 triple quadrupole mass spectrometer (AB Sciex) were used for sample analysis. The mobile phase composed of acetonitrile and water supplemented with 0.1% formic acid. A C4 solid phase extraction cartridge is used for sample separation. MS detection is achieved in positive ion MRM mode.
Peak areas for substrate, metabolite and internal standard are determined using the RapidFire integrator software (version 3.6.12009.12296). Peak area ratios (PAR) of metabolite and internal standard (stable-labelled metabolite) are then calculated. The measurement window for each experiment is then defined:
PAR (0% activity)=average PAR for all incubations containing concentrated inhibitor; Par (100% activity)=average PAR for all incubations containing no inhibitor (DMSO controls); % Activity (test inhibitor)=[PAR (test inhibitor)−PAR (0% activity)]/[PAR (100% activity)−PAR (0% activity)]; % Inhibition (test inhibitor)=100-% Activity (test inhibitor).

SMILES	inhibition at 10 min, 10 µM (CYP2D6) [%]	IC20 (hERG channel) [µM]	IC50 (hERG channel) [µM]	hERG IC20/TLR7 IC50 (hERG channel)	hERG IC20/TLR8 IC50 (hERG channel)	hERG IC20/TLR9 IC50 (hERG channel)
CO[C@H]1CN(c2cc(C)nc(N3CCN(C[C@H]4CN(c5ccc(C#N)c6nccnc56)C[C@@H](C)O4)CC3)n2)C[C@@H]1N [Example 104, 8-[(2S,6R)-2-[[4-[4-[(3S,4S)-3-amino-4-methoxy-pyrrolidin-1-yl]-6-methyl-pyrimidin-2-yl]piperazin-1-yl]methyl]-6-methyl-morpholin-4-yl]quinoxaline-5-carbonitrile]	15	> 10	> 20	>454	>10000	>142
Cc1cc(N2CCNCC2)nc(N2CCN(C[C@H]3CN(c4ccc(C#N)c5nccnc45)C[C@@H](C)O3)CC2)n1 [Example 114, 8-[(2R,6S)-2-methyl-6-[[4-(4-methyl-6-piperazin-1-yl-pyrimidin-2-yl)piperazin-1-yl]methyl]morpholin-4-yl]quinoxaline-5-carbonitrile]	32	> 10	> 20	>3333	>10000	>161
[2H]c1nc2c(C#N)ccc(N3C[C@H](CN4CCN(c5nc(C)cc(N6CC(N)C6)n5)CC4)O[C@H](C)C3)c2nc1[2H] [Example 124, 8-[(2S,6R)-2-[[4-[4-(3-aminoazetidin-1-yl)-6-methyl-pyrimidin-2-yl]piperazin-1-yl]methyl]-6-methyl-morpholin-4-yl]-2,3-dideuterio-quinoxaline-5-carbonitrile]	9.5	> 10	> 20	>2000	>10000	>322
[2H]c1ccc2c(N3C[C@H](CN4CCN(c5ccc(N6C[C@@H](N)[C@H](OC)C6)nc5)CC4)O[C@H](C)C3)ccc(C#N)c2n1 [Example 143, 5-[(2S,6R)-2-[[4-[6-[(3R,4R)-3-amino-4-methoxy-pyrrolidin-1-yl]-3-pyridyl]piperazin-1-yl]methyl]-6-methyl-morpholin-4-yl]-2-deuterio-quinoline-8-carbonitrile]	-30	> 10	> 20	>476	>1250	>212
[2H]c1ccc2c(N3C[C@H](CN4CCN(c5ccc(N[C@H]6CNC[C@H]6F)nc5)CC4)O[C@H](C)C3)ccc(C#N)c2n1 [Example 162, 2-deuterio-5-[(2S,6R)-2-[[4-[6-[[(3S,4R)-4-fluoropyrrolidin-3-yl]amino]-3-pyridyl]piperazin-1-yl]methyl]-6-methyl-morpholin-4-yl]quinoline-8-carbonitrile]	1	–	–	–	–	–
C[C@@H]1CN(c2ccc(C#N)n3nccc23)C[C@H](CN2CC(c3ccc(N4CC(C)(N)C4)cc3)C2)O1 [Example 163, 4-[(2S,6R)-2-[[3-[4-(3-amino-3-methyl-azetidin-1-yl)phenyl]azetidin-1-yl]methyl]-6-methyl-morpholin-4-yl]pyrazolo[1,5-a]pyridine-7-carbonitrile]	6.5	–	–	–	–	–
CO[C@@H]1CN(c2ccc(C3CN(C[C@H]4CN(c5ccc(C#N)n6ncc(F)c56)C[C@@H](C)O4)C3)cn2)C[C@H]1N [Example 164, 4-[(2S,6R)-2-[[3-[6-[(3R,4R)-3-amino-4-methoxy-pyrrolidin-1-yl]-3-pyridyl]azetidin-1-yl]methyl]-6-methyl-morpholin-4-yl]-3-fluoro-pyrazolo[1,5-a]pyridine-7-carbonitrile]	26	–	–	–	–	–
C[C@@H]1CN(c2ccc(C#N)n3ncc(F)c23)C[C@H](CN2CC(c3ccc(N4C[C@@H]5C[C@H]4CN5)nc3)C2)O1 [Example 165, 4-[(2S,6R)-2-[[3-[6-[(1S,4S)-2,5-diazabicyclo[2.2.1]heptan-2-yl]-3-pyridyl]azetidin-1-yl]methyl]-6-methyl-morpholin-4-yl]-3-fluoro-pyrazolo[1,5-a]pyridine-7-carbonitrile]	17.5	–	–	–	–	–

The next lines start with results.

inhibition at 10 min, 10 µM (CYP2D6) [%]	SMILES	IC20 (hERG channel) [µM]	IC50 (hERG channel) [µM]	hERG IC20/TLR7 IC50 (hERG channel)	hERG IC20/TLR8 IC50 (hERG channel)	hERG IC20/TLR9 IC50 (hERG channel)
-2.5	[2H]c1ccc2c(N3C[C@H](CN4CCN(c5ccc(N6CC(C)(N)C6)nc5)CC4)O[C@H](C)C3)ccc(C#N)c2n1 [Example 132, 5-[(2S,6R)-2-[[4-[6-(3-amino-3-methyl-azetidin-1-yl)-3-pyridyl]piperazin-1-yl]methyl]-6-methyl-morpholin-4-yl]-2-deuterio-quinoline-8-carbonitrile]	> 10	> 20	>434	>625	>71
-10.5	C[C@@H]1CN(c2ccc(C#N)n3ncc(F)c23)C[C@H](CN2CCN(c3ccc(N4CC(C)(N)C4)nc3)CC2)O1 [Example 154, 4-[(2S,6R)-2-[[4-[6-(3-amino-3-methyl-azetidin-1-yl)-3-pyridyl]piperazin-1-yl]methyl]-6-methyl-morpholin-4-yl]-3-fluoro-pyrazolo[1,5-a]pyridine-7-carbonitrile]	> 10	> 20	>312	>200	>89
17	C[C@@H]1CN(c2ccc(C#N)n3ncc(F)c23)C[C@H](CN2CC(c3ccc(N4CC(C)(N)C4)cc3)C2)O1 [Example 160, 4-[(2S,6R)-2-[[3-[4-(3-amino-3-methyl-azetidin-1-yl)phenyl]azetidin-1-yl]methyl]-6-methyl-morpholin-4-yl]-3-fluoro-pyrazolo[1,5-a]pyridine-7-carbonitrile]	–	–	–	–	–
20	CO[C@@H]1CN(c2ccc(N3CCN(C[C@H]4CN(c5ccc(C#N)n6ncc(F)c56)C[C@@H](C)O4)CC3)cn2)C[C@H]1N [Example 166, 4-[(2S,6R)-2-[[4-[6-[(3R,4R)-3-amino-4-methoxy-pyrrolidin-1-yl]-3-pyridyl]piperazin-1-yl]methyl]-6-methyl-morpholin-4-yl]-3-fluoro-pyrazolo[1,5-a]pyridine-7-carbonitrile]	8	> 20	380	258	173
